Assay results reported in US11434203B2, “8-hydroxyquinoline derivatives as diagnostic and therapeutic agents” (The General Hospital Corporation, priority 2015, dated 2022).
Like-named read-outs stand apart in the source and are kept apart here.

Experiments:
[1] = biological target: T1, soluble Aβ oligomers (Human A 1-42) (Homo sapiens, UniProt P05067); test: Aβ aggregation assay (bis-ANS): reversal of aggregation of soluble Aβ oligomers; type: biochemical
T1 construct: Human A 1-42 (China Peptide); purchased China Peptide
T1 sequence (P05067 672-713): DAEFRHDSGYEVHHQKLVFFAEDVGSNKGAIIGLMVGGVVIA
Text: 4,4(′)-dianilino-1,1(′)-binaphthyl-5,5(′)-disulfonate (bis-ANS, Sigma) was used to assess whether compounds could reverse the aggregation of soluble A oligomers. (See, e.g., LeVine, H., 3rd, (2002) 4,4(′)-Dianilino-1,1(′)-binaphthyl-5,5(′)-disulfonate: report on non-beta-sheet conformers of Alzheimer's peptide beta(1-40), Arch Biochem Biophys 404, 106; Chen, W. T. et al., (2011) Distinct effects of Zn^2+, Cu^2+, Fe^3+, and Al^3+ on amyloid-beta stability, oligomerization, and aggregation: amyloid-beta destabilization promotes annular protofibril formation, J Biol Chem 286, 9646) Human A 1-42 (China Peptide) was dissolved in DMSO (Sigma) to a stock concentration of 1.5 mM. A ([…]) oligomers were induced with ZnSO4 (15 μM) at 26° C. for 30 min in a buffer (pH 7.4) containing Tris (50 mM), NaCl (150 mM) and bis-ANS (10 μM). Compounds (0.1 to 120 μM) dissolved in DMSO (Sigma) were added for 30 min. CQ and PBT2 were used as positive controls. Endpoint fluorescence (excitation=390 nm, emission=490 nm) was measured with a Flex Station (Molecular Devices) fluorescent plate reader. At each concentration, Aβ fluorescence was normalized to background fluorescence and then expressed as a percentage of vehicle treated control samples. […] Data represents the mean of at least 9 replicates from 3 experiments.

AD patients = details: pilot phase II clinical trial, cited from earlier work
SH-SY5Y cells = test: Ionophore assay: cellular metal levels by ICP-MS; type: cell-based; details: 20 μM, 6 hours; for Cu uptake compared to 8HQ: FIG. 1; for Cu uptake, fold increase than that of PBT2: FIG. 3
Description: Cells were maintained at 37° C. with 5% CO2 and passaged every 3-4 days. Compounds (10 mM) were solubilized in DMSO (Sigma). CQ and PBT2 were used as positive controls. Cells were treated with growth media supplemented with each compound ([…]) or vehicle for 6 hours. Cells were harvested and metal levels were measured with Inductively-Coupled Plasma Mass Spectrometry (Varian), as previously described. […] Data represents the mean and S.E.M. of at least 9 replicates from 3 experiments. A oneway ANVOA with Fisher's LSD test was used to determine statistical differences relative to control (Prism 6, Graphpad).
Dashed line indicates control level. SH-SY5Y cells treated were treated with each compound (20 μM) for 6 hours and cellular metal levels were measured with ICP-MS.
(§1) SH-SY5Y cells treated were treated with each compound (20 μM) for 6 hours and cellular metal levels were measured with ICP-MS. Dashed line indicates control level.
as §1

[2] = system: patients with Huntington's disease and patients with AD; details: phase II clinical trials; cited from earlier work
[3] = Aβ oligomers induced with ZnSO4 (15 μM), bis-ANS fluorescence, compounds 0.1 to 120 μM for 30 min, pH 7.4, read-out: EC50 (μM), reversal of aggregation of soluble Aβ oligomers

| Structure (SMILES) | EC50 [1, 3] [µM] | other results |
| --- | --- | --- |
| Oc1cccc2ccc(F)nc12 [Compound 5] | – | EC50 [1]: > 120 µM; Cu uptake compared to 8HQ (SH-SY5Y cells): inferior to 8HQ |
| Oc1cccc2cc(F)cnc12 [Compound 6] | – | Cu uptake compared to 8HQ (SH-SY5Y cells): inferior to 8HQ |
| Oc1ccccc1/N=C/c1ccc(F)cc1 [Compound 10] | 15.4 | – |
| Oc1c(F)cc(Cl)c2cccnc12 [Compound 12, 5-chloro-7-fluoro-8-hydroxyquinoline] | 4.9 | – |
| Oc1c(Cl)cc(F)c2cccnc12 [Compound 15, 7-chloro-5-fluoro-8-hydroxyquinoline] | 5.2 | – |
| Oc1c(Br)cc(F)c2cccnc12 [Compound 16, 7-bromo-5-fluoro-8-hydroxyquinoline] | 3.7 | – |
| Oc1c(Cl)cc(Cl)c2ccc(COCCCCF)nc12 [Compound 24, 5,7-dichloro-2-((4-fluorobutoxy)methyl)quinolin-8-ol] | 2 | – |
| CN(Cc1cn(CCCF)nn1)Cc1ccc2c(Cl)cc(Cl)c(O)c2n1 [Compound 29, 5,7-dichloro-2-((((1-(3-fluoropropyl)-1H-1,2,3-triazol-4-yl)methyl)(methyl)amino)methyl)quinolin-8-ol] | 4.5 | Cu uptake, fold increase than that of PBT2 (SH-SY5Y cells): 16 fold |

Continued, in another order:

| EC50 [1, 3] [µM] | Structure (SMILES) | other results |
| --- | --- | --- |
| 1.8 | Oc1c(I)cc(Cl)c2cccnc12 [Clioquinol (CQ), 5-chloro-7-iodo-quinolin-8-ol] | rate of cognitive decline (AD patients; AD patients): attenuated; tolerability (AD patients): well tolerated |
| 3.5 | Oc1c(F)cc(Br)c2cccnc12 [Compound 13, 5-bromo-7-fluoro-8-hydroxyquinoline] | – |
| 2.3 | Oc1c(F)cc(I)c2cccnc12 [Compound 14, 7-fluoro-5-iodo-8-hydroxyquinoline] | – |
| 2.5 | Oc1c(I)cc(F)c2cccnc12 [Compound 17, 5-fluoro-7-iodo-8-hydroxyquinoline] | – |
| 2.4 | Oc1c(Cl)cc(Cl)c2ccc(COCCF)nc12 [Compound 23, 5,7-dichloro-2-((2-fluoroethoxy)methyl)quinolin-8-ol] | – |
| 2.3 | CN(Cc1cn(CCF)nn1)Cc1ccc2c(Cl)cc(Cl)c(O)c2n1 [Compound 28, 5,7-dichloro-2-((((1-(2-fluoroethyl)-1H-1,2,3-triazol-4-yl)methyl)(methyl)amino)methyl)quinolin-8-ol] | Cu uptake, fold increase than that of PBT2 (SH-SY5Y cells): 10 fold |
| 2.8 | CN(Cc1cn(CCCCF)nn1)Cc1ccc2c(Cl)cc(Cl)c(O)c2n1 [Compound 30, 5,7-dichloro-2-((((1-(4-fluorobutyl)-1H-1,2,3-triazol-4-yl)methyl)(methyl)amino)methyl)quinolin-8-ol] | Cu uptake, fold increase than that of PBT2 (SH-SY5Y cells): 8 fold |
| 2 | CN(C)Cc1ccc2c(Cl)cc(Cl)c(O)c2n1 [PBT2, 5,7-Dichloro-2-((dimethylamino)methyl) 8-quinolinol, reference compound] | benefits in patients [2]: shown benefits |
